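Exposure lasted 48 hours, with cells grown in 96-well plates and compounds tested at five concentrations. Abbreviation: GI50, concentration required for 50% inhibition of growth.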 The source made the active and inactive calls. Cut-off read from the data, not from the text of the source: active = GI50 up to about 1.1 µM and inactive = higher.
Columns and labels:
Assay in all cases: inhibition of tumour cell growth, NCI panel, 48 h
SF-539 = test system: SF-539
Hs-578T = test system: Hs-578T
NCI-H23 = test system: NCI-H23
HT-29 = test system: HT-29
SK-OV-3 = test system: SK-OV-3
HCC 2998 = test system: HCC 2998
OVCAR-5 = test system: OVCAR-5
NCI-H226 = test system: NCI-H226
IGROV-1 = test system: IGROV-1
KM12 = test system: KM12
EKVX = test system: EKVX
BT-549 = test system: BT-549
A549 = test system: A549
LOX IMVI = test system: LOX IMVI
HCT-116 = test system: HCT-116
SNB-75 = test system: SNB-75
HOP-92 = test system: HOP-92
U-251 = test system: U-251
UO-31 = test system: UO-31

Clc1ccc(CSCc2ccc(Cl)cc2Cl)c(Cl)c1
GI50 (SF-539): > 100 µM (inactive)
GI50 (Hs-578T): 79.4 µM (inactive)
GI50 (NCI-H23): 78.5 µM (inactive)
GI50 (HT-29): 29.9 µM (inactive)
GI50 (SK-OV-3): > 100 µM (inactive)
GI50 (HCC 2998): 26.3 µM (inactive)
GI50 (OVCAR-5): > 100 µM (inactive)
GI50 (NCI-H226): > 100 µM (inactive)
GI50 (IGROV-1): 41.8 µM (inactive)
GI50 (KM12): 40.2 µM (inactive)
GI50 (EKVX): 57.5 µM (inactive)
GI50 (BT-549): 97.5 µM (inactive)
GI50 (A549): 34.3 µM (inactive)
GI50 (LOX IMVI): 36.1 µM (inactive)
GI50 (HCT-116): 41.4 µM (inactive)
GI50 (SNB-75): 48.3 µM (inactive)
GI50 (HOP-92): 54.2 µM (inactive)
GI50 (U-251): 54 µM (inactive)
GI50 (UO-31): > 100 µM (inactive)

C=C(C)C(=O)O[C@@H]1C[C@@]2(C)O[C@@H]2C[C@H](O)/C(C)=C/[C@H]2OC(=O)C(=C)[C@@H]21
GI50 (SF-539): > 100 µM (inactive)
GI50 (Hs-578T): > 100 µM (inactive)
GI50 (NCI-H23): > 100 µM (inactive)
GI50 (HT-29): 61.5 µM (inactive)
GI50 (SK-OV-3): > 100 µM (inactive)
GI50 (HCC 2998): > 100 µM (inactive)
GI50 (OVCAR-5): > 100 µM (inactive)
GI50 (NCI-H226): > 100 µM (inactive)
GI50 (IGROV-1): > 100 µM (inactive)
GI50 (KM12): > 100 µM (inactive)
GI50 (EKVX): 62.2 µM (inactive)
GI50 (BT-549): 63.1 µM (inactive)
GI50 (A549): > 100 µM (inactive)
GI50 (LOX IMVI): 29.9 µM (inactive)
GI50 (HCT-116): 33.7 µM (inactive)
GI50 (SNB-75): > 100 µM (inactive)
GI50 (HOP-92): 52.8 µM (inactive)
GI50 (U-251): > 100 µM (inactive)

C(/Cc1ccc2c(c1)OCO2)=N\N=C1NCCCN1
GI50 (SF-539): 50.5 µM (inactive)
GI50 (Hs-578T): > 100 µM (inactive)
GI50 (NCI-H23): > 100 µM (inactive)
GI50 (HT-29): 65.5 µM (inactive)
GI50 (SK-OV-3): 42.1 µM (inactive)
GI50 (HCC 2998): 41.7 µM (inactive)
GI50 (OVCAR-5): 59 µM (inactive)
GI50 (NCI-H226): > 100 µM (inactive)
GI50 (IGROV-1): 68.2 µM (inactive)
GI50 (KM12): > 100 µM (inactive)
GI50 (EKVX): 48.9 µM (inactive)
GI50 (BT-549): 64.7 µM (inactive)
GI50 (A549): 36.7 µM (inactive)
GI50 (LOX IMVI): 29.4 µM (inactive)
GI50 (HCT-116): 46.2 µM (inactive)
GI50 (SNB-75): 15.2 µM (inactive)
GI50 (HOP-92): 70.1 µM (inactive)
GI50 (U-251): 75.7 µM (inactive)
GI50 (UO-31): 38.2 µM (inactive)

O=C1CC2OCC=C3CN4CCC56c7ccccc7N1C5C2C3CC46O (centres undefined)
GI50 (SF-539): > 100 µM (inactive)
GI50 (Hs-578T): > 100 µM (inactive)
GI50 (NCI-H23): > 100 µM (inactive)
GI50 (HT-29): > 100 µM (inactive)
GI50 (SK-OV-3): > 100 µM (inactive)
GI50 (HCC 2998): > 100 µM (inactive)
GI50 (OVCAR-5): > 100 µM (inactive)
GI50 (NCI-H226): > 100 µM (inactive)
GI50 (IGROV-1): > 100 µM (inactive)
GI50 (KM12): > 100 µM (inactive)
GI50 (EKVX): > 100 µM (inactive)
GI50 (BT-549): > 100 µM (inactive)
GI50 (A549): > 100 µM (inactive)
GI50 (LOX IMVI): > 100 µM (inactive)
GI50 (HCT-116): > 100 µM (inactive)
GI50 (SNB-75): > 100 µM (inactive)
GI50 (HOP-92): > 100 µM (inactive)
GI50 (U-251): > 100 µM (inactive)
GI50 (UO-31): > 100 µM (inactive)

COc1cc2c(c(OC)c1)C(=O)O[C@H](C)CCCC/C=C/C2
GI50 (SF-539): 10.9 µM (inactive)
GI50 (Hs-578T): 20.9 µM (inactive)
GI50 (NCI-H23): 11.2 µM (inactive)
GI50 (HT-29): 35 µM (inactive)
GI50 (SK-OV-3): 45.9 µM (inactive)
GI50 (HCC 2998): 15.8 µM (inactive)
GI50 (OVCAR-5): 15.1 µM (inactive)
GI50 (NCI-H226): 45.6 µM (inactive)
GI50 (IGROV-1): 9.06 µM (inactive)
GI50 (KM12): 9.35 µM (inactive)
GI50 (EKVX): 11.7 µM (inactive)
GI50 (BT-549): 13.4 µM (inactive)
GI50 (A549): 30.6 µM (inactive)
GI50 (LOX IMVI): 4.73 µM (inactive)
GI50 (HCT-116): 8.61 µM (inactive)
GI50 (SNB-75): 14.1 µM (inactive)
GI50 (HOP-92): 9.77 µM (inactive)
GI50 (U-251): 9.79 µM (inactive)
GI50 (UO-31): 13.5 µM (inactive)

N#Cc1ccc(-c2nc3cc(Cl)ccc3[nH]2)cc1
GI50 (SF-539): > 100 µM (inactive)
GI50 (Hs-578T): > 100 µM (inactive)
GI50 (HT-29): 48.2 µM (inactive)
GI50 (SK-OV-3): > 100 µM (inactive)
GI50 (HCC 2998): 38.1 µM (inactive)
GI50 (NCI-H226): 99.5 µM (inactive)
GI50 (IGROV-1): > 100 µM (inactive)
GI50 (KM12): 25.3 µM (inactive)
GI50 (EKVX): 23.1 µM (inactive)
GI50 (BT-549): 68.2 µM (inactive)
GI50 (A549): 38.3 µM (inactive)
GI50 (SNB-75): > 100 µM (inactive)
GI50 (HOP-92): > 100 µM (inactive)
GI50 (U-251): 61.9 µM (inactive)
GI50 (UO-31): 27.6 µM (inactive)

COc1cc2cc(C(=O)N3CC(CCl)c4c3cc(N)c3ccccc43)[nH]c2cc1OCCN(C)C (centres undefined)
GI50 (SF-539): < 0.005 µM (active)
GI50 (Hs-578T): 0.027 µM (active)
GI50 (NCI-H23): < 0.005 µM (active)
GI50 (HT-29): 0.5 µM (active)
GI50 (SK-OV-3): 0.0105 µM (active)
GI50 (HCC 2998): < 0.005 µM (active)
GI50 (OVCAR-5): 0.00713 µM (active)
GI50 (NCI-H226): 0.00528 µM (active)
GI50 (IGROV-1): < 0.005 µM (active)
GI50 (KM12): < 0.005 µM (active)
GI50 (EKVX): 0.00809 µM (active)
GI50 (BT-549): 0.051 µM (active)
GI50 (A549): < 0.005 µM (active)
GI50 (LOX IMVI): < 0.005 µM (active)
GI50 (HCT-116): < 0.005 µM (active)
GI50 (SNB-75): < 0.005 µM (active)
GI50 (HOP-92): < 0.005 µM (active)
GI50 (U-251): < 0.005 µM (active)
GI50 (UO-31): < 0.005 µM (active)

CCC(CON(C)c1ccccc1)(SC)SC
GI50 (SF-539): > 100 µM (inactive)
GI50 (Hs-578T): 80.2 µM (inactive)
GI50 (NCI-H23): > 100 µM (inactive)
GI50 (HT-29): > 100 µM (inactive)
GI50 (SK-OV-3): > 100 µM (inactive)
GI50 (HCC 2998): > 100 µM (inactive)
GI50 (OVCAR-5): > 100 µM (inactive)
GI50 (NCI-H226): > 100 µM (inactive)
GI50 (IGROV-1): > 100 µM (inactive)
GI50 (KM12): > 100 µM (inactive)
GI50 (EKVX): > 100 µM (inactive)
GI50 (BT-549): > 100 µM (inactive)
GI50 (A549): > 100 µM (inactive)
GI50 (LOX IMVI): > 100 µM (inactive)
GI50 (HCT-116): > 100 µM (inactive)
GI50 (SNB-75): > 100 µM (inactive)
GI50 (HOP-92): > 100 µM (inactive)
GI50 (U-251): > 100 µM (inactive)
GI50 (UO-31): 95.1 µM (inactive)

O=c1[nH]c2ccc(CC(=S)N3CCN(c4ccccc4)CC3)cc2o1
GI50 (SF-539): > 67.8 µM (inactive)
GI50 (Hs-578T): > 54.2 µM (inactive)
GI50 (NCI-H23): > 100 µM (inactive)
GI50 (HT-29): > 100 µM (inactive)
GI50 (SK-OV-3): > 100 µM (inactive)
GI50 (HCC 2998): > 100 µM (inactive)
GI50 (OVCAR-5): > 100 µM (inactive)
GI50 (NCI-H226): > 42 µM (inactive)
GI50 (IGROV-1): > 90.8 µM (inactive)
GI50 (KM12): 63.4 µM (inactive)
GI50 (EKVX): 37.9 µM (inactive)
GI50 (BT-549): > 100 µM (inactive)
GI50 (A549): 85.3 µM (inactive)
GI50 (LOX IMVI): > 100 µM (inactive)
GI50 (HCT-116): > 80.5 µM (inactive)
GI50 (SNB-75): > 34 µM (inactive)
GI50 (HOP-92): 84.9 µM (inactive)
GI50 (U-251): 41.2 µM (inactive)
GI50 (UO-31): > 100 µM (inactive)

Nc1ncnc2c1ccn2CC=C(CO)CO
GI50 (SF-539): > 100 µM (inactive)
GI50 (Hs-578T): > 100 µM (inactive)
GI50 (NCI-H23): > 100 µM (inactive)
GI50 (HT-29): > 100 µM (inactive)
GI50 (SK-OV-3): > 100 µM (inactive)
GI50 (HCC 2998): > 100 µM (inactive)
GI50 (OVCAR-5): > 100 µM (inactive)
GI50 (NCI-H226): 8.07 µM (inactive)
GI50 (IGROV-1): > 100 µM (inactive)
GI50 (KM12): > 100 µM (inactive)
GI50 (EKVX): > 100 µM (inactive)
GI50 (BT-549): > 100 µM (inactive)
GI50 (A549): > 100 µM (inactive)
GI50 (LOX IMVI): > 100 µM (inactive)
GI50 (HCT-116): > 100 µM (inactive)
GI50 (SNB-75): > 100 µM (inactive)
GI50 (HOP-92): > 100 µM (inactive)
GI50 (U-251): > 100 µM (inactive)
GI50 (UO-31): > 100 µM (inactive)

C=C(C)C(CC=C(C)C)Cc1c(O)cc(OC)c2c1OC(c1ccc(O)cc1O)C(O)C2=O (centres undefined)
GI50 (SF-539): 15.9 µM (inactive)
GI50 (Hs-578T): 17.2 µM (inactive)
GI50 (NCI-H23): 17.9 µM (inactive)
GI50 (HT-29): 20.7 µM (inactive)
GI50 (SK-OV-3): 16.8 µM (inactive)
GI50 (HCC 2998): 16.8 µM (inactive)
GI50 (OVCAR-5): 17.7 µM (inactive)
GI50 (NCI-H226): 18.3 µM (inactive)
GI50 (IGROV-1): 14.6 µM (inactive)
GI50 (KM12): 12 µM (inactive)
GI50 (EKVX): 16.3 µM (inactive)
GI50 (BT-549): 14.9 µM (inactive)
GI50 (A549): 19.5 µM (inactive)
GI50 (LOX IMVI): 20 µM (inactive)
GI50 (HCT-116): 17.3 µM (inactive)
GI50 (SNB-75): 17.2 µM (inactive)
GI50 (HOP-92): 14.6 µM (inactive)
GI50 (U-251): 14.5 µM (inactive)
GI50 (UO-31): 15.9 µM (inactive)
